From patent US8642649B2, “Orally dispersible tablet” (Takeda Pharmaceutical Company Limited, priority 2011, dated 2014) come the findings set out here.

Converted amounts (≈) assume the structure as drawn.

For series [1], the system named is patients suffering from bipolar disorder and in the remission phase. The series can be described thus: maintenance of remission phase in patients with bipolar disorder, double-blind randomized placebo-controlled trial. The series is classed as in vivo, human. As to conditions: oral 8 mg once daily at bedtime. The method, then:
Oral 8 mg formulation containing Compound A The test tablet was administered to a group of patients suffering from bipolar disorder and in the remission phase, once daily at bedtime for 6 months. A placebo was administered once daily at bedtime to a separate control group of patients in the remission phase of bipolar disorder for 6 months. This study was performed as a double-blind, randomized, placebo-controlled trial. The time from randomization to relapse over 6 months of treatment is determined by the Primary Investigator (PI) or defined by any of the following criteria: depression [Montgomery-Asberg Depression Rating Scale (MADRS) score ≧16]; mania/hypomania [Young Mania Rating Scale (YMRS) total score ≧14]; clinical global impressions bipolar version (CGI-BP); cumulative proportion of participants in each arm (placebo or Compound A) surviving without relapse [MADRS score ≧16 and YMRS total score ≧14], a medication initiation or change for manic/depressed/mixed symptoms, a hospitalization for manic/depressed/mixed symptoms and suicide risk or imminent risk of suicide.

The nature of the next series: solubility of compound A. It is filed as physicochemical. To be noted: irrespective of pH.
Series [2] deals with patients suffering from bipolar disorder. The series can be described thus: acute depression in patients with bipolar disorder, double-blind randomized placebo-controlled trial (CGI-BP). It is filed as in vivo, human. To be noted: oral 8 mg once daily up to 8 weeks; value below 0 favors Compound A; 95% CI; N=9; P value=0.001.
Series [3] is described as follows: randomized open-label pharmacokinetic study of oral-mucosal tablets versus oral 8 mg tablet. The series is classed as in vivo, human. To be noted: for AUC(0-t) / Cmax: human serum, mean, N=6, measurement substance = label. Here is the method:
A randomized, open-label study to assess the pharmacokinetic parameters of an oral-mucosal tablet containing Compound A and its bioavailability relative to an oral 8 mg tablet containing Compound A was performed.
The test was conducted in two parts: (1) a parallel-group design to evaluate the pharmacokinetic parameters of 3 doses of Compound A (0.25, 0.5 and 1 mg) in oral-mucosal tablets and (2) an open-label, randomized 2-period crossover design to assess the relative bioavailability (pharmacokinetic profile) of the oral-mucosal 0.5 mg tablet compared with the bioavailability of the oral 8 mg tablet.
For part (1), a total of 18 subjects were randomly assigned to 1 of the 3 dosing regimens (i.e., 0.25, 0.5 and 1 mg; 6 subjects per dose) and each subject received a single dose of Compound A at the assigned dose.
For part (2), a total of 24 subjects were randomly assigned to take either the oral-mucosal 0.5 mg tablet or the oral 8 mg tablet at a single dose during each of the two periods.
To evaluate the studies, the pharmacokinetic parameters of Compound A and M-II were measured, including maximum observed serum concentration (Cmax) and area under the serum concentration-time curve from time 0 to the last quantifiable concentration (AUC(0-tlqc)).

A short description of series [4]: blood kinetics of unchanged form and active metabolite M-II after oral or sublingual administration to human (cross-over, open-label). As to conditions: for Cmax: serum, mean. It is filed as in vivo. Here is the method: Oral preparation and preparation for oral-mucosal absorption were measured for blood kinetics of unchanged form and active metabolite M-II after oral or sublingual administration to human. The plasma concentration before administration, and 5 min, 10 min, 15 min, 20 min, 30 min, 45 min, 60 min, 90 min, 120 min, 180 min, 240 min, 360 min, 480 min, 600 min, 720 min and 1440 min after administration was measured.
To be specific, symbol/term and definition thereof in this table are explained in the following. The study was conducted by cross-over method under open-label condition.
AUC(0-tlqc): Area under the serum concentration-time curve from time 0 to time of the last quantifiable concentration (tlqc), calculated using the linear trapezoidal rule.
AUC(0-inf): Area under the serum concentration-time curve from time 0 to infinity, calculated as AUC(0-inf)=AUC(0-tlqc)+lqc/λz, where tlqc is the time of last quantifiable concentration and lqc is the last quantifiable concentration. λz: Terminal elimination rate constant, calculated as the negative of the slope of the log-linear regression of the natural logarithm concentration-time curve during the terminal phase. Cmax: Maximum observed serum concentration. Tmax: Time to reach Cmax. Active metaboline M-II: (2S)-2-Hydroxy-N-{2-[(8S)-1,6,7,8-tetrahydro-2H-indeno[5,4-b]furan-8-yl]ethyl}propanamide

Setting [5] is: single oral-mucosal tablet dose of Compound A 0.25 mg.
Where [6] appears, read: single oral-mucosal tablet dose of Compound A 0.5 mg.
Setting [7] is: single oral-mucosal tablet dose of Compound A 1 mg.

The solubility is the dissolved amount per volume that the medium holds. Higher therefore signals a readily soluble substance. By AUC(0-t) is commonly meant exposure summed from dosing to a finite time, without extrapolation to infinity. Low values mean low exposure, high ones high exposure. Broadly, the Cmax is the maximum level reached in the sampled fluid or tissue. Consider `CCC(=O)NCC[C@@H]1CCc2ccc3c(c21)CCO3` [compound A, (S)—N-[2-(1,6,7,8-tetrahydro-2H-indeno[5,4-b]furan-8-yl)ethyl]propionamide], for which the “Cumulative Proportion of Patients in each arm surviving without relapse” value in series [1] (Baseline) is recorded as 1.00; in series [1] (Month 1), 0.929; in series [1] (Month 2) it was 0.849; in series [1] (Month 3), 0.716; in series [1] (Month 4), 0.661; in series [1] (Month 5), 0.632. The “Cumulative Proportion of Patients in each arm surviving without relapse” value in series [1] (Month 6) turned out to be 0.566. Moreover, the solubility in the series “solubility of compound A” is around 0.2 mg/mL (≈ 771 µM). Also, the “CGI-BP severity for depression, longitudinal analysis of change in outcome” value in series [2] is −0.1 (−0.16 to −0.05). Besides, the results for the AUC(0-t) in series [3] (setting [5]), in series [3] (setting [6]) and in series [3] (setting [7]) were 2.6 ng·h/mL, 6.23 ng·h/mL and 7.87 ng·h/mL, respectively. Further, the Cmax in series [3] (setting [5]) was 3.14 ng/mL; in series [3] (setting [6]) it was 5.85 ng/mL; in series [3] (setting [7]), 9.57 ng/mL; in series [4] (oral, dose 8 mg), 4.76 ± 5.19 ng/mL; in series [4] (sublingual, dose 0.5 mg), 4.74 ng/mL. Besides, the figures for the “AUC(0-inf) unchanged/metabolite ratio” value in series [4] (oral administration) and in series [4] (sublingual administration) were 0.03 and 0.30, respectively. For the same molecule, the Cmax unchanged/metabolite ratio in series [4] (oral administration) was 0.07; in series [4] (sublingual administration) it was 1.13.

For the molecule `C[C@H](O)C(=O)NCC[C@@H]1CCc2ccc3c(c21)CCO3` [M-II, (2S)-2-Hydroxy-N-{2-[(8S)-1,6,7,8-tetrahydro-2H-indeno[5,4-b]furan-8-yl]ethyl}propanamide], the AUC(0-t) in series [3] (setting [5]) amounted to 4.64 ng·h/mL; in series [3] (setting [6]) it was 10.5 ng·h/mL; in series [3] (setting [7]), 20.2 ng·h/mL. The maximum concentration (Cmax) came to 1.85 ng/mL in series [3] (setting [5]), 3.74 ng/mL in series [3] (setting [6]) and 7.68 ng/mL in series [3] (setting [7]). Also, the “fraction of exposure compared to the approved oral 8 mg tablet” value in series [3] (oral-mucosal administration 0.5 mg) was below 7%.
